Assay results published in patent US10829487B2, “Benzylamino substituted pyridopyrimidinones and derivatives as SOS1 inhibitors” (Boehringer Ingelheim International GmbH, priority 2017, dated 2020).
pIC50: −log10 of the molar value.

The molecules below were run against protein-protein interaction between SOS1 and KRAS G12D (Homo sapiens (Human), UniProt Q07889) (assay: KRAS::SOS1 AlphaScreen Binding Assay). Details: KRAS G12D::SOS1 AlphaScreen; measured without EDTA unless marked with an asterisk.
protein-protein interaction between SOS1 and KRAS G12D, sequence (Q07889 564-1049, stated change not applied): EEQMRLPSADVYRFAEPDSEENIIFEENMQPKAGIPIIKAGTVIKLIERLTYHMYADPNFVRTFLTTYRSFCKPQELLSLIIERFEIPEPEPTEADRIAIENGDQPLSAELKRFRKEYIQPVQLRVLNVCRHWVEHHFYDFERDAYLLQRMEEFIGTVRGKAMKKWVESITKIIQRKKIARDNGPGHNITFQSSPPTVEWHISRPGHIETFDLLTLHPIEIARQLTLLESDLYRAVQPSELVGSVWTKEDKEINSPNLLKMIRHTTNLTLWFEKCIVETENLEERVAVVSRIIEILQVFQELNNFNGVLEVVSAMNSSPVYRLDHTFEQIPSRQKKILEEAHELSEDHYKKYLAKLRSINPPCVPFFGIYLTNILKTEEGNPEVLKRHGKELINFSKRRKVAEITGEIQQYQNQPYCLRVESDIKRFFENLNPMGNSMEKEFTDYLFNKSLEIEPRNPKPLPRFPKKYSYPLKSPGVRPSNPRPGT
Text: KRAS::SOS1 AlphaScreen Binding Assay
Low IC50 values are indicative of high potency of the SOS1 inhibitor compound in this assay setting:
Reagents: • GST-tagged SOS1 (564_1049_GST_TEV_ECO) produced in-house • GST-TEV-SOS1 (564-1049) is purchased from Viva Biotech Ltd. • 6×His-Tev-K-RasG12D(1-169)Avi is purchased from Xtal BioStructures, Inc. (Lot # X129-110) • GDP (Sigma Cat No G7127) • AlphaLISA Glutathione Acceptor Beads (PerkinElmer, Cat No AL109) • AlphaScreen Streptavidin Donor Beads (PerkinElmer Cat No 6760002) • Assay plates: Proxiplate-384 PLUS, white (PerkinElmer, Cat No 6008289)
10 nM (final assay concentration) KRAS G12D, 10 μM (final assay concentration) GDP and 5 nM (final assay concentration) GST-SOS1 are mixed in assay buffer prior to use and kept at room temperature.
AlphaLISA Glutathione Acceptor Beads and AlphaScreen Streptavidin Donor Beads are mixed in assay buffer at a concentration of 10 μg/mL (final assay concentration) each prior to use and kept at room temperature.
Compounds are diluted to a final start concentration of 100 μM and are tested in duplicate. Assay-ready plates (ARPs) are generated using an Access Labcyte Workstation with a Labcyte Echo 550 or 555 accoustic dispenser. For compound a start concentration of 100 μM, 150 nL of compound solution is transferred per well in 11 concentrations in duplicate with serial 1:5 dilutions.
The assay is run using a fully automated robotic system in a darkened room below 100 Lux. 10 μL of KRAS::SOS1 GDP mix is added into columns 1-24 to the 150 nL of compound solution (final dilution in the assay 1:100, final DMSO concentration 1%).
After a 30 minute incubation time 5 μL of bead mix is added into columns 1-23. Plates are kept at room temperature in a darkened incubator. After a further 60 minute incubation, the signal is measured using a PerkinElmer Envision HTS Multilabel Reader using the AlphaScreen specifications from PerkinElmer. Each plate contains the following controls: • diluted DMSO+KRAS::SOS1 GDP mix+bead mix • diluted DMSO+KRAS::SOS1 GDP mix
IC50 values are calculated and analyzed using a 4 parametric logistic model.

In order of rising pIC50:
1. Cc1nc(N[C@H](C)c2cccc(C(F)(F)F)c2)c2cn(C3(C)CCCOC3)c(=O)cc2n1 (stereo partly shown) [I-113]  7.41
2. Cc1nc(N[C@H](C)c2cccc(C(F)(F)F)c2)c2cn(C3(C)CCN(C)CC3)c(=O)cc2n1 [I-114]  7.59
3. C[C@@H](Nc1ncnc2cc(=O)n(C3(C)CC3)cc12)c1cccc2c1CCC2=O [I-105]  7.60
4. Cc1nc(N[C@H](C)c2cccc(C(F)(F)F)c2)c2cn(C(C)(C)C)c(=O)cc2n1 [I-110]  7.60
5. C[C@@H](Nc1ncnc2cc(=O)n(C34CC(C3)C4)cc12)c1cccc2c1CCC2=O [I-107]  7.77
6. Cc1nc(N[C@H](C)c2cccc(C(F)(F)F)c2)c2cn(C3(C)CCOCC3)c(=O)cc2n1 [I-112]  7.89
7. Cc1nc(N[C@H](C)c2cccc(C(F)(F)F)c2)c2cn(C34CCC(CC3)C4)c(=O)cc2n1 [I-115]  8.00
8. Cc1nc(N[C@H](C)c2cccc(C(F)(F)F)c2)c2cn(C3(C)CCOC3)c(=O)cc2n1 (stereo partly shown) [I-111]  8.05
9. Cc1nc(N[C@H](C)c2cccc(C(F)F)c2F)c2cn(C3(C(F)(F)F)CCOC3)c(=O)cc2n1 (stereo partly shown) [I-117]  8.05
10. C[C@@H](Nc1ncnc2cc(=O)n(C34CCC(CC3)C4)cc12)c1cccc2c1CCC2=O [I-109]  8.22

Same assay, conditions: Table 20; KRAS::SOS1 AlphaScreen (SOS1 / KRAS G12D)

In order of rising pIC50:
1. Cc1nc(N[C@H](C)c2cccc(CC(F)(F)F)c2)c2cn(C3(C(F)F)CC3)c(=O)cc2n1 [I-100]  7.52
2. Cc1nc(N[C@H](C)c2cccc(C(F)(F)F)c2C)c2cn([C@H]3C[C@@](O)(C(F)(F)F)C3)c(=O)cc2n1 [I-48]  7.57
3. Cc1nc(N[C@H](C)c2cccc(C(C)(F)F)c2F)c2cn(C34CC(F)(C3)C4)c(=O)cc2n1 [I-56]  7.82
4. C[C@@H](Nc1ncnc2cc(=O)n(C3CC34CC4)cc12)c1cccc(C(F)F)c1F (stereo partly shown) [I-66]  7.82
5. Cc1nc(N[C@H](C)c2cccc(C(C)(F)F)c2F)c2cn(C3(C(F)(F)F)CC3)c(=O)cc2n1 [I-55]  7.89
6. C[C@@H](Nc1ncnc2cc(=O)n(C3(C(F)(F)F)CCOC3)cc12)c1cccc(C(F)F)c1F (stereo partly shown) [I-72]  7.96
7. C[C@@H](Nc1ncnc2cc(=O)n(C3(C(F)(F)F)CC3)cc12)c1cccc(C(F)F)c1F [I-65]  8.00
8. C[C@@H](Nc1ncnc2cc(=O)n(C3(C(F)F)CC3)cc12)c1cccc(C(F)F)c1F [I-64]  8.10
9. C[C@@H](Nc1ncnc2cc(=O)n(C3(C)CC3)cc12)c1cccc(C(F)F)c1F [I-62]  8.15
10. C[C@@H](Nc1ncnc2cc(=O)n(C3(CF)CC3)cc12)c1cccc(C(F)F)c1F [I-63]  8.15
11. C[C@@H](Nc1ncnc2cc(=O)n(C34CC(C3)C4)cc12)c1cccc(C(F)F)c1F [I-70]  8.15
12. C[C@@H](Nc1ncnc2cc(=O)n(C3(C)CC3)cc12)c1cccc(C(C)(F)F)c1F [I-76]  8.15
13. Cc1nc(N[C@H](C)c2cccc(C(C)(F)F)c2)c2cn(C3(C(F)F)CC3)c(=O)cc2n1 [I-99]  8.15
14. C[C@@H](Nc1ncnc2cc(=O)n(C3(CF)CC3)cc12)c1cccc(C(C)(F)F)c1F [I-77]  8.22
15. Cc1nc(N[C@H](C)c2cccc(C(F)F)c2F)c2cn(C3(C(F)F)CC3)c(=O)c(F)c2n1 [I-82]  8.30
16. Cc1nc(N[C@H](C)c2cccc(C(F)(F)[C@@H]3CCCO3)c2F)c2cn(C3(C)CC3)c(=O)c(F)c2n1 [I-94]  8.30
17. Cc1nc(N[C@H](C)c2cccc(C(F)(F)[C@@H]3CCCO3)c2F)c2cn(C3(C(F)F)CC3)c(=O)c(F)c2n1 [I-95]  8.30
18. Cc1nc(N[C@H](C)c2cccc(C(F)(F)C(C)(C)O)c2F)c2cn(C34CC(F)(C3)C4)c(=O)c(F)c2n1 [I-91]  8.40
19. Cc1nc(N[C@H](C)c2cccc(C(F)(F)C3CCCO3)c2)c2cn(C3(C)CC3)c(=O)c(F)c2n1 (stereo partly shown) [I-92]  8.40
20. Cc1nc(N[C@H](C)c2cccc(C(F)(F)C3CCCO3)c2)c2cn(C3(C(F)F)CC3)c(=O)c(F)c2n1 (stereo partly shown) [I-93]  8.52
21. Cc1nc(N[C@H](C)c2cccc3c2CCC3(F)F)c2cn(C34CCN(CC3)C4)c(=O)cc2n1 [I-60]  8.70
